Source: US20100226853A1 (priority 2007, published 2010)

Columns and labels:
SRC = SRC (Homo sapiens, UniProt P12931); assay type: biochemical; details: read-out: IC50, Src protein
Method: (§1) Kinase was preincubated with inhibitor at 37° C. for 10 min prior to starting the reaction upon addition of ATP; Assay was carried out in 384 well clear plates (Corning) and absorbance was measured on SpectraMax plate reader (Molecular Devices). Reaction rates were plotted against inhibitor concentration and fitted using SigmaPlot 9.0 (Systat Software Inc.).

K562 cells = assay: Cellular proliferation, [3H]thymidine uptake; assay type: cell-based; details: Homo sapiens, K562, read-out: IC50, K562 cells proliferation
Method: (§2) The immortalized human hematopoietic Philadelphia chromosome-positive cytokine independent R10(−) M07e^p210 cell line (46) was maintained in Iscove's modified Dulbecco's medium (Life Technologies, Inc., Grand Island, N.Y.) containing 10% FCS (Hyclone, Logan, Utah). The parental M07e megakaryoblastic cell line was a kind gift of Brian Druker and was maintained in the presence of 50 ng/mL kit ligand (SCF) as described (46-47) K562 was obtained from the ATCC. […] Tumor cell cultures were maintained in a humidified atmosphere with 5% CO2 at 37° C. (NuAire).
(§3) Data points for all assays were obtained in triplicate, and background incorporation from cell-free wells was determined and subtracted from all data points. The data was analyzed using a non-linear regression fit to a sigmoidal dose-response curve using Prism 4 (GraphPad Software, Inc).

[1] = test system: R10 neg cells (MO7e/p210^bcr-abl); assay: Cellular proliferation, [3H]thymidine uptake; assay type: cell-based; details: Homo sapiens, read-out: IC50, R10 neg cells (MO7e/p210^bcr-abl) proliferation
Method: as §2, §3

M07e cells = assay: Cellular proliferation, [3H]thymidine uptake, Kit ligand dependent growth; assay type: cell-based; details: Homo sapiens, M-07e, read-out: IC50, M07e cells proliferation
Method: The immortalized human hematopoietic Philadelphia chromosome-positive cytokine independent R10(−) M07e^p210 cell line (46) was maintained in Iscove's modified Dulbecco's medium (Life Technologies, Inc., Grand Island, N.Y.) containing 10% FCS (Hyclone, Logan, Utah). The parental M07e megakaryoblastic cell line was a kind gift of Brian Druker and was maintained in the presence of 50 ng/mL kit ligand (SCF) as described (46-47) K562 was obtained from the ATCC. K562 was maintained in suspension in 90% RPMI 1640 medium supplemented with 10% FBS, 2 mM L-glutamine, 10 mM HEPES, 1 mM sodium pyruvate, 1.5 g/L sodium bicarbonate, 4.5 g/L […], 10% FBS, 100 IU/mL penicillin and 100 μg/ml streptomycin. Tumor cell cultures were maintained in a humidified atmosphere with 5% CO2 at 37° C. (NuAire).
. Data points for all assays were obtained in triplicate, and background incorporation from cell-free wells was determined and subtracted from all data points. The data was analyzed using a non-linear regression fit to a sigmoidal dose-response curve using Prism 4 (GraphPad Software, Inc).

EGFR = biological target: T1, EGFR (Homo sapiens, UniProt P00533); assay: QuickScout ELISA kinase panel; assay type: biochemical; details: Compound 5 at 10 nM
T1 construct: purchased Carna Biosciences (QuickScout service)
From the text: (§4) An ELISA-based assay was used in which the phosphorylation of an oligopeptide substrate was detected by an HRP-conjugated anti-p-Tyr (PY20) probe.

FAK = biological target: T2, FAK (Homo sapiens, UniProt Q05397); assay: QuickScout ELISA kinase panel; assay type: biochemical; details: read-out: % Inhibition of Kinase Activity, FAK
T2 construct: purchased Carna Biosciences (QuickScout service)
From the text: as §4

FGFR1 = biological target: T3, FGFR1 (Homo sapiens, UniProt P11362); assay: QuickScout ELISA kinase panel; assay type: biochemical; details: Compound 5 at 10 nM
T3 construct: purchased Carna Biosciences (QuickScout service)
From the text: as §4

IGF1R = biological target: T4, IGF1R (Homo sapiens, UniProt P08069); assay: QuickScout ELISA kinase panel; assay type: biochemical; details: Compound 5 at 10 nM
T4 construct: purchased Carna Biosciences (QuickScout service)
From the text: as §4

KDR = biological target: T5, KDR (Homo sapiens, UniProt P35968); assay: QuickScout ELISA kinase panel; assay type: biochemical; details: Compound 5 at 10 nM; negative = enhanced phosphorylation
T5 construct: purchased Carna Biosciences (Kobe, Japan), QuickScout service
From the text: as §4

KIT = biological target: T6, KIT (Homo sapiens, UniProt P10721); assay: QuickScout ELISA kinase panel; assay type: biochemical
T6 construct: purchased Carna Biosciences (Kobe, Japan), QuickScout service
From the text: as §4

SYK = biological target: T7, SYK (Homo sapiens, UniProt P43405); assay: QuickScout ELISA kinase panel; assay type: biochemical; details: read-out: % Inhibition of Kinase Activity, SYK
T7 construct: purchased Carna Biosciences (Kobe, Japan), QuickScout service
From the text: as §4

TIE2 = biological target: T8, TIE2 (Homo sapiens, UniProt Q02763); assay: QuickScout ELISA kinase panel; assay type: biochemical; details: Compound 5 at 10 nM; negative = enhanced phosphorylation
T8 construct: purchased Carna Biosciences (Kobe, Japan), QuickScout service
From the text: as §4

TRKA = biological target: T9, TRKA (Homo sapiens, UniProt P04629); assay: QuickScout ELISA kinase panel; assay type: biochemical; details: Compound 5 at 10 nM; negative = enhanced phosphorylation
T9 construct: purchased Carna Biosciences (Kobe, Japan), QuickScout service
From the text: as §4

ACK = biological target: T10, ACK (Homo sapiens, UniProt Q07912); assay: QuickScout ELISA kinase panel; assay type: biochemical; details: Compound 5 at 10 nM
T10 construct: purchased Carna Biosciences (QuickScout service)
From the text: (§5) . […] An ELISA-based assay was used in which the phosphorylation of an oligopeptide substrate was detected by an HRP-conjugated anti-p-Tyr (PY20) probe. […]. The data appears in Table 2 in Example 3.

EphB4 = biological target: T11, EphB4 (Homo sapiens, UniProt P54760); assay: QuickScout ELISA kinase panel; assay type: biochemical; details: Compound 5 at 10 nM
T11 construct: purchased Carna Biosciences (QuickScout service)
From the text: as §5

PDGFR— = biological target: T12, PDGFR— (Homo sapiens, UniProt P16234); assay: QuickScout ELISA kinase panel; assay type: biochemical; details: Compound 5 at 10 nM
T12 construct: purchased Carna Biosciences (Kobe, Japan), QuickScout service
From the text: as §5

[2] = Octanol/water partition coefficient determination; assay type: physicochemical; details: n-octanol/water
[3] = Protein binding assay, serum; assay type: in vitro ADME; details: fresh human serum
Method: Protein binding of the radiotracers were determined adding 37 kBq (1 μCi) of each radioligand to samples of 1% bovine serum albumin and 1 mL of fresh human serum. The protein was precipitated by adding 1 mL of ice cold 20% trichloroacetic acid and the suspension centrifuged and washing with 1 mL of 20% ice cold trichloroacetic acid. The protein pellets and supernatants were counted in a gamma counter to determine the protein binding of the radioligands.

B6D2F1 mice = assay: Acute toxicity in mice; assay type: in vivo; details: for toxicity in mice: 0.1 mg/kg intravenously, single dose, 14 days observation
From the text: Each group contained three mice. […] There were five males and five females in either control or treatment group. […] Mice were sent for pathology, including complete blood cell count, complete chemistry panel and complete necropsy. Two intact male mice and two intact female mice were also sent and used as references.

ABL = ABL (Homo sapiens, UniProt P00519); assay type: biochemical; design: purchased Invitrogen; details: mean of three experiments; read-out: IC50, Abl protein
Method: as §1

[4] = 0.1 mg/kg i.v., 14 days, average, same in control group

T6 sequence (P10721 26-976): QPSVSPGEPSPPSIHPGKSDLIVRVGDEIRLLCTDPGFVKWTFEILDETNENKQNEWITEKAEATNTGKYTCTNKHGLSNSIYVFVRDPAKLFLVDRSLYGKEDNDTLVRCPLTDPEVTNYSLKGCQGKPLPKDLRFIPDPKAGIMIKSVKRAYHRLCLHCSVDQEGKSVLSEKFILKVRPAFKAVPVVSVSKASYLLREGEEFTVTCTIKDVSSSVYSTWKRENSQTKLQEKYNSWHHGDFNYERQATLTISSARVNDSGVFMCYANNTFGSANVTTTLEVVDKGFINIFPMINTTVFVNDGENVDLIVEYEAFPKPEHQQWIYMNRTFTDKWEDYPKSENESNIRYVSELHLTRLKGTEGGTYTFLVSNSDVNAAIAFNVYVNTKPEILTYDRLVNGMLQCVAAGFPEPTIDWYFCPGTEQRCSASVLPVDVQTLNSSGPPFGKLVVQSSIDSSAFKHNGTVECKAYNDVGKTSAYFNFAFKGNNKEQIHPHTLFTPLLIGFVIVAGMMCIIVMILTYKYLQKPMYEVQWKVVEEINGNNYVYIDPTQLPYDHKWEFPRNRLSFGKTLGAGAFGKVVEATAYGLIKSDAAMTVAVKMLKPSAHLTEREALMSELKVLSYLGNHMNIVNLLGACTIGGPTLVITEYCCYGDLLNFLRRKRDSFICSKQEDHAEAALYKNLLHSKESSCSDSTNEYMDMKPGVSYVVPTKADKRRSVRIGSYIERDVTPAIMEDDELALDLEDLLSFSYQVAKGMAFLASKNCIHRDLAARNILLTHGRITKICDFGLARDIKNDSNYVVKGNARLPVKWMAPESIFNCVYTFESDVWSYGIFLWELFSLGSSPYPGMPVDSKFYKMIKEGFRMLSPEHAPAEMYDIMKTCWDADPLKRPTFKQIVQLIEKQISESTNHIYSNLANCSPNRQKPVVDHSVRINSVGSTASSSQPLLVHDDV
T4 sequence (P08069 31-1367): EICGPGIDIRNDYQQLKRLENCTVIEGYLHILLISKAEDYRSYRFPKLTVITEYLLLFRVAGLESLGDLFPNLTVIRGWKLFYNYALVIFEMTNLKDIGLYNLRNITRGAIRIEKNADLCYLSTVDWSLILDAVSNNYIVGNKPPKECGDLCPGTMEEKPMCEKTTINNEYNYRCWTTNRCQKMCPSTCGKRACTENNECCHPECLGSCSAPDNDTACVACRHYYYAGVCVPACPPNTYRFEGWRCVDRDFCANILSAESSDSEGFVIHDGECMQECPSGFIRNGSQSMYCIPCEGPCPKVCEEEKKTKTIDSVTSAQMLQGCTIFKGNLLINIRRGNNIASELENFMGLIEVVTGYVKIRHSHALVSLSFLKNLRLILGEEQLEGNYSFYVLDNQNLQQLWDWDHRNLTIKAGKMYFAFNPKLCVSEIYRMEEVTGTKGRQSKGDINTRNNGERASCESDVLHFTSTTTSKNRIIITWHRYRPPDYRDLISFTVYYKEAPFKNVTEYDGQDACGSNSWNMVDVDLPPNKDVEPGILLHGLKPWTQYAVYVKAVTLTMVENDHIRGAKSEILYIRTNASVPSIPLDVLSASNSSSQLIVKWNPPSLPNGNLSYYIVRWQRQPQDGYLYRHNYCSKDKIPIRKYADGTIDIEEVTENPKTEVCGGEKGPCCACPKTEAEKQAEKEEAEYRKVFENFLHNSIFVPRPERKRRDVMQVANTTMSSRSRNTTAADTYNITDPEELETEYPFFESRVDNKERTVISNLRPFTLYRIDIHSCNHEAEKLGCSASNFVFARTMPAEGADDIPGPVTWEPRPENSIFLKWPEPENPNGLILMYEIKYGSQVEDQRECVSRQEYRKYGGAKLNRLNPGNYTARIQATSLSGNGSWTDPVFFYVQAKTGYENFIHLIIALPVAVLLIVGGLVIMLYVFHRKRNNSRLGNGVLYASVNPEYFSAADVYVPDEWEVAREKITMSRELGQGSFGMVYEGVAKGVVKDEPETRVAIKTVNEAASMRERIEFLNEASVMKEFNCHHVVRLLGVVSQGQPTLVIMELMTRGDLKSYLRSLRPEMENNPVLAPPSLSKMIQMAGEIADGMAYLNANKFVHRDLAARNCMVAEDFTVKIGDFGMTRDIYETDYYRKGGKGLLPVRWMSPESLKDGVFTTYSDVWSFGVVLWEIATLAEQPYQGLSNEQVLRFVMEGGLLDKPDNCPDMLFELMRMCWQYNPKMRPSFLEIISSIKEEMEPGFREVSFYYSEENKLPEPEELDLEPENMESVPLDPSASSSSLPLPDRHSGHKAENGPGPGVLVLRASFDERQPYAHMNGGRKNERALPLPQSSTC
T11 sequence (P54760 16-987): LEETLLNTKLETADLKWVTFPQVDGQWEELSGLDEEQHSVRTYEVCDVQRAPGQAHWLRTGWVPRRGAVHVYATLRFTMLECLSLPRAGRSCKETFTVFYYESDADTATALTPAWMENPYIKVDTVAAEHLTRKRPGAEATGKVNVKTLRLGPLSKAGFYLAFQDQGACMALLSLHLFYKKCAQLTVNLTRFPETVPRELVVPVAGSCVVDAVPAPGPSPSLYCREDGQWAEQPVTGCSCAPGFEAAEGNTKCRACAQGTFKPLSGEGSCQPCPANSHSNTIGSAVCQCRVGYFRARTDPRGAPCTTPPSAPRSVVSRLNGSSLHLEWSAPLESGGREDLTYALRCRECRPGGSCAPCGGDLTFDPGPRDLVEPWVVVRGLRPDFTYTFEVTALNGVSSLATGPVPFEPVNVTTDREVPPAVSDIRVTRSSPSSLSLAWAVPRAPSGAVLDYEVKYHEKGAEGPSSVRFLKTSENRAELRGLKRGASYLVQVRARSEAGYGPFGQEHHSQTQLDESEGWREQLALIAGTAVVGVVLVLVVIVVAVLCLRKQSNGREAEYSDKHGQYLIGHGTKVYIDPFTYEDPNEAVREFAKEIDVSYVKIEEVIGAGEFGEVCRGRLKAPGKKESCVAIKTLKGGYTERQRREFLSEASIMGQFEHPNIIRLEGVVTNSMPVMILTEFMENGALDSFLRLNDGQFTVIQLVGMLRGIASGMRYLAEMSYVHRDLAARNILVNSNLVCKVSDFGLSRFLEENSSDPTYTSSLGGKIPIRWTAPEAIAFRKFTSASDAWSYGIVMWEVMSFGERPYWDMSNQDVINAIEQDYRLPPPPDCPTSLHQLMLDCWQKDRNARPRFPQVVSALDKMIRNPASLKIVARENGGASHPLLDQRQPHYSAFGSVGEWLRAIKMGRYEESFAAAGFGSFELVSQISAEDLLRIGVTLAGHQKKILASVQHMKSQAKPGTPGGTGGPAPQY
Chain of ABL (P00519 whole entry): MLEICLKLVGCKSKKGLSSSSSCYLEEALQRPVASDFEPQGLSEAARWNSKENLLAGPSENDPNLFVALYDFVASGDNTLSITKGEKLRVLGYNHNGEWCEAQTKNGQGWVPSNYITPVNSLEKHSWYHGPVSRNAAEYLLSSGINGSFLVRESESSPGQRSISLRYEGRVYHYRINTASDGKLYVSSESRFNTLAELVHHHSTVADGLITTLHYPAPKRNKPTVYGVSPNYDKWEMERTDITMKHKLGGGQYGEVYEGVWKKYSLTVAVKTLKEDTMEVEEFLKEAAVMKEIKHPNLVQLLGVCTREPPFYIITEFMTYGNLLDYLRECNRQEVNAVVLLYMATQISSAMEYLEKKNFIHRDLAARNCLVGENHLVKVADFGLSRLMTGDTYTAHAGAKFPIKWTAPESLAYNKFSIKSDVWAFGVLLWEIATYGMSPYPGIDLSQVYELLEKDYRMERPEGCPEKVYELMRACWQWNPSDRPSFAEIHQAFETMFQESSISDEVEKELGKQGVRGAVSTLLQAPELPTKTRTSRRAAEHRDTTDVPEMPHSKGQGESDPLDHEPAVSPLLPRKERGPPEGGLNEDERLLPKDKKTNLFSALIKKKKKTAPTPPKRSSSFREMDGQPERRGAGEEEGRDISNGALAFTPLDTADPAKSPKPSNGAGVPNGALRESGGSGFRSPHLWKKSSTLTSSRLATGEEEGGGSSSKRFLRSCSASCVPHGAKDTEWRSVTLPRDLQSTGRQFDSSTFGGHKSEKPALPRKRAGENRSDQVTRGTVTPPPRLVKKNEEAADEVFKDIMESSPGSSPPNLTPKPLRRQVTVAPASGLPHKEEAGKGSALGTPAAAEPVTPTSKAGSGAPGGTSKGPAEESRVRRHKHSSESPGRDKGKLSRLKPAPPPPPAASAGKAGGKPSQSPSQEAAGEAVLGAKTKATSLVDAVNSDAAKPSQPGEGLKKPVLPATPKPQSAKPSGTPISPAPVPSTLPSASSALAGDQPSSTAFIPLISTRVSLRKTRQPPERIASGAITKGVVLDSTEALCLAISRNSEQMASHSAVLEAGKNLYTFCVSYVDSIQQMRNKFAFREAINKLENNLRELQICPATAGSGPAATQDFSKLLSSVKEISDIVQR
T12 sequence (P16234 550-1089 limits assumed): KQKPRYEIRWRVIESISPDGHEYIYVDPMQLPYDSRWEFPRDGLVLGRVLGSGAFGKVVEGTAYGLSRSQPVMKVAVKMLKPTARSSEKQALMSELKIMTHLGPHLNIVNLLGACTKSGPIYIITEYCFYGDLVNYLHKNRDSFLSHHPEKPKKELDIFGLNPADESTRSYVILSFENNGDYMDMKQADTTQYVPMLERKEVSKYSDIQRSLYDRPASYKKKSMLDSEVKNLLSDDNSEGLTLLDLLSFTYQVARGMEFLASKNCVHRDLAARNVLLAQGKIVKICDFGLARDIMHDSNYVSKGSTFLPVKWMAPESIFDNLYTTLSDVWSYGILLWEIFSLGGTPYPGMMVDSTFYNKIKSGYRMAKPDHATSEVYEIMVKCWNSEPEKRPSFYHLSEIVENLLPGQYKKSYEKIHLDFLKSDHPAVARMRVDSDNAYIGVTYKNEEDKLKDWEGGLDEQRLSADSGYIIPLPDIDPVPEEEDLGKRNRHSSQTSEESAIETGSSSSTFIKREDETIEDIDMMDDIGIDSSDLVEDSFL

Q: What does the source list for Cc1nc(Nc2ncc(C(=O)Nc3c(C)cccc3Cl)s2)cc(N2CCN(CCF)CC2)n1 [Compound 5, N-(2-Chloro-6-methylphenyl)-2-(6-(4-(2-fluoroethyl)piperazin-1-yl)-2-methylpyrimidin-4-ylamino)thiazole-5-carboxamide]?
A: IC50 (SRC): 3.5 ± 2.2 nM; IC50 (K562 cells): 1.1 nM; IC50 [1]: 0.1 nM; IC50 (M07e cells): 1.1 nM; inhibition at 0.01 µM (EGFR): 27.2%; inhibition at 0.01 µM (FAK): -18.3%; inhibition at 0.01 µM (FGFR1): 20.4%; inhibition at 0.01 µM (IGF1R): 5.9%; inhibition at 0.01 µM (KDR): -5.6%; IC50 (KIT): < 2 nM; inhibition at 0.01 µM (KIT; Compound 5 at 10 nM): > 97%; % Inhibition of Kinase Activity, KIT (KIT; Compound 5 at 10 nM, 0.01 µM): 98.7%; inhibition at 0.01 µM (SYK): 4.5%; inhibition at 0.01 µM (TIE2): -51.7%; inhibition at 0.01 µM (TRKA): -0.9%; inhibition at 0.01 µM (ACK): 83.1%; inhibition at 0.01 µM (EphB4): 97%; inhibition at 0.01 µM (PDGFR—): 86%; logD at 2 h [2]: 2.1 ± 0.6; protein bound in serum [3]: 98.5±1.0%; body weight gain, female mice (B6D2F1 mice; [4]): 0.5 g; body weight gain, male mice (B6D2F1 mice; [4]): 1.8 g; toxicity in mice (B6D2F1 mice): has not shown toxicity; toxicity in mice (B6D2F1 mice; listed as fluoro derivative 5): safe and nontoxic; IC50 (ABL): 9.1 ± 0.8 nM
